Measurements as given in ChEMBL document CHEMBL6071181, “Discovery of ZLC491 as a Potent, Selective, and Orally Bioavailable CDK12/13 PROTAC Degrader” (J Med Chem, 2024).
Calls of active or inactive are those of the source. The rule behind the calls is not given here.

Columns and labels:
MDA-MB-231 [1] = assay: Antiproliferative activity against human MDA-MB-231 cells xenografted in female CB17SCID mouse model assessed as induction of tumor apoptosis at 200 mg/kg, po administered for 5 days by H and E staining based immunohistochemical analysis; format: functional, organism-based; conditions: time 5.0 day
[2] = target: T1, Protein cereblon/Cyclin-dependent kinase 12 (Homo sapiens) (UniProt Q9NYV4+Q96SW2); assay: PROTAC activity at CRBN/CDK12 in human MDA-MB-231 cells assessed as induction of CDK12 degradation at 1 uM pretreated with MG132 followed by compound addition and measured after 10 hrs by immunoblotting analysis; format: cell-based
T1 sequence (Q96SW2 whole entry, looked up): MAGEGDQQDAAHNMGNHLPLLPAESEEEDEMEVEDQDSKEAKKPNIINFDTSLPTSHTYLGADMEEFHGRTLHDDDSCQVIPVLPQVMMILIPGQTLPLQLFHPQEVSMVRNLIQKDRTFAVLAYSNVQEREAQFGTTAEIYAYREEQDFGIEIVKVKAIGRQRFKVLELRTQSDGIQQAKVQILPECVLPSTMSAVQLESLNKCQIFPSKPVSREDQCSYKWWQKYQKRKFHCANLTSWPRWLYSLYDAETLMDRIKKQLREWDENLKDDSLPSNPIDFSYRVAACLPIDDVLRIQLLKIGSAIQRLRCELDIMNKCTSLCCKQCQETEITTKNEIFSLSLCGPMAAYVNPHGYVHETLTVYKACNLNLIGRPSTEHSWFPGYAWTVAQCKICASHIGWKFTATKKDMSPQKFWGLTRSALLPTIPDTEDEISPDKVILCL
T1 sequence (Q9NYV4 whole entry, looked up): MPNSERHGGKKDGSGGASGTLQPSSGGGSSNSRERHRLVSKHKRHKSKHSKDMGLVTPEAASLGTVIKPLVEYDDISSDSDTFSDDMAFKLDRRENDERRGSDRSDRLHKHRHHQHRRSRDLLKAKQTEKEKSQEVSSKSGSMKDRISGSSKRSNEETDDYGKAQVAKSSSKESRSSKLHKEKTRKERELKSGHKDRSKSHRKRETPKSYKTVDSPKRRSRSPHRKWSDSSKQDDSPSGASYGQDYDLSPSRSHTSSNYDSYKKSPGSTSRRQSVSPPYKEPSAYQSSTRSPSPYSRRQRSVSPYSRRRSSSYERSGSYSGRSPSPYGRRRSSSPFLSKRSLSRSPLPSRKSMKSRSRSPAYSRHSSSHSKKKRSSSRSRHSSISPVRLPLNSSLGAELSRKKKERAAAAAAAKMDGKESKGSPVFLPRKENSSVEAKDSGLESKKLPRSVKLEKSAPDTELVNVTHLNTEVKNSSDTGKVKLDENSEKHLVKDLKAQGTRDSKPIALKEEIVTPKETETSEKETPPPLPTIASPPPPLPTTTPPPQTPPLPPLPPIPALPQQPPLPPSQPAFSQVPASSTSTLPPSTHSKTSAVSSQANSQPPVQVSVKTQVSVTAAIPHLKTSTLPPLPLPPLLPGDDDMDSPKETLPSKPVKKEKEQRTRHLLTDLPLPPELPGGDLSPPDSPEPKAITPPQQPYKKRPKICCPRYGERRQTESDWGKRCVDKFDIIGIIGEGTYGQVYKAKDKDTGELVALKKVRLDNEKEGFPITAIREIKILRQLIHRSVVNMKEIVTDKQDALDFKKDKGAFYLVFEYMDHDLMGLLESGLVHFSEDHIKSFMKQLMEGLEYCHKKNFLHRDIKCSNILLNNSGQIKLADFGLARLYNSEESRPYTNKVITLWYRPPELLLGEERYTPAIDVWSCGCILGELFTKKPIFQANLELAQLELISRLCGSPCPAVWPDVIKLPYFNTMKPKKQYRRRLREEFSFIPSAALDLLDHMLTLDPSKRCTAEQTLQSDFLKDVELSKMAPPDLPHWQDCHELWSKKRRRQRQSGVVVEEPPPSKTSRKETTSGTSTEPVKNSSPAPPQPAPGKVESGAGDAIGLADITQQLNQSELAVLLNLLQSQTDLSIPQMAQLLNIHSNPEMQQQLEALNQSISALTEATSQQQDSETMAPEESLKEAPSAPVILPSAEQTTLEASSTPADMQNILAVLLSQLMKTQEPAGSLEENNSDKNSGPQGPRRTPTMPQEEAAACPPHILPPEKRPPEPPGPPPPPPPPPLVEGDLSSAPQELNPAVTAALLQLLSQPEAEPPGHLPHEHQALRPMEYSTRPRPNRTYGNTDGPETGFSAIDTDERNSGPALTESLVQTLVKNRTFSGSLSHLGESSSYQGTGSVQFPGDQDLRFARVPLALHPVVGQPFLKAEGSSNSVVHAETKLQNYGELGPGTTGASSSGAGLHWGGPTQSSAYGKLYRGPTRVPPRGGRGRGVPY

[3] = target: T2, Protein cereblon/Cyclin-dependent kinase 13 (Homo sapiens) (UniProt Q14004+Q96SW2); assay: PROTAC activity at CRBN/CDK13 in human MDA-MB-231 cells assessed as induction of CDK13 degradation at 1 uM pretreated with 3-benzyl-1-((1r,4r)-4-((5-cyanopyridin-2-yl)amino)cyclohexyl)-1-(4-(piperazin-1-yl)phenyl)urea followed by compound addition and measured after 10 hrs by immunoblotting analysis; format: cell-based
T2 sequence (Q14004 whole entry, looked up): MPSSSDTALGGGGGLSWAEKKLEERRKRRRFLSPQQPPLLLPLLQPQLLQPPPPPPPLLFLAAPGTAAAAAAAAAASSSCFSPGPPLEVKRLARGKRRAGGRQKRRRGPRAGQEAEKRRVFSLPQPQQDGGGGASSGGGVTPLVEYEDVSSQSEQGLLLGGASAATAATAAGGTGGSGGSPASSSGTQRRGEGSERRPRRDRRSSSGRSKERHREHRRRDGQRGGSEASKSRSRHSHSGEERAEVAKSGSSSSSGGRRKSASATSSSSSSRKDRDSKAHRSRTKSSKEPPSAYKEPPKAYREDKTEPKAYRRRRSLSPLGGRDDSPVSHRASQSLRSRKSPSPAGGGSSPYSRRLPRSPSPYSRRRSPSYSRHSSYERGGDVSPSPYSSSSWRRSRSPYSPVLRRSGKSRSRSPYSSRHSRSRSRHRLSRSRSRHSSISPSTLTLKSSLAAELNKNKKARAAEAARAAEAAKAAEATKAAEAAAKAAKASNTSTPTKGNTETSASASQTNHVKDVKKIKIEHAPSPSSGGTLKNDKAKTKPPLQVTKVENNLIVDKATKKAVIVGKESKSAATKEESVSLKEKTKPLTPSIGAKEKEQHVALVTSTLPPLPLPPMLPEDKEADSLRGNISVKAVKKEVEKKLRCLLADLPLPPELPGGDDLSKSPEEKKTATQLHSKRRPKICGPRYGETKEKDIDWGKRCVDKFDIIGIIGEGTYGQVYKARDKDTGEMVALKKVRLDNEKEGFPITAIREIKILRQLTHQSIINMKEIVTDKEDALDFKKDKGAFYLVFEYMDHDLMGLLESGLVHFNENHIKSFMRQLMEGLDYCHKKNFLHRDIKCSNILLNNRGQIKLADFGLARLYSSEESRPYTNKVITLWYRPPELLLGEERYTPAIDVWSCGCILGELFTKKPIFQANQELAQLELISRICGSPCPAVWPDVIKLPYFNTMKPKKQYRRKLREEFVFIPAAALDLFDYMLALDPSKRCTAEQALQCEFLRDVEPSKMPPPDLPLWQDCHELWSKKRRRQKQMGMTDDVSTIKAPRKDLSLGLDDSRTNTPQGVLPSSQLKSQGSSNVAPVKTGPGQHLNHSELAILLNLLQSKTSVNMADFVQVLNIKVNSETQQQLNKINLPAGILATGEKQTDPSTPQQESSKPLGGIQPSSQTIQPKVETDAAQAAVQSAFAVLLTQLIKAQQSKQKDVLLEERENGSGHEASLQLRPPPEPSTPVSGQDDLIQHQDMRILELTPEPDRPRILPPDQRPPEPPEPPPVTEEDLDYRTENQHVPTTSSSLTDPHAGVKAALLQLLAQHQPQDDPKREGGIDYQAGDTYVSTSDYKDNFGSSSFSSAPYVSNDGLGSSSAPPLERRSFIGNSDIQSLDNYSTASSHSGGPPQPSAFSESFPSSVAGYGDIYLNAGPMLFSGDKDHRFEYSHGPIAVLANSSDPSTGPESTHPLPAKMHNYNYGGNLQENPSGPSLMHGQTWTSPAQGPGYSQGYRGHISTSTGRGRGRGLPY
T2 sequence (Q96SW2 whole entry, looked up): as the sequence (Q96SW2 whole entry, looked up) above

MDA-MB-231 [4] = assay: Antiproliferative activity against human MDA-MB-231 cells xenografted in female CB17SCID mouse model assessed as increase in TUNEL signaling in tumor at 200 mg/kg, po administered for 5 days by TUNEL staining based immunohistochemical analysis; format: functional, organism-based; conditions: time 5.0 day
[5] = target: T2, Protein cereblon/Cyclin-dependent kinase 13 (Homo sapiens); assay: PROTAC activity at CRBN/CDK13 in human MDA-MB-231 cells assessed as induction of CDK13 degradation at 1 uM pretreated with bafilomycin followed by compound addition and measured after 10 hrs by immunoblotting analysis; format: cell-based
MDA-MB-231 [6] = assay: Synergistic antiproliferative activity against human MDA-MB-231 cells assessed as combination index at 0.3 uM incubated for 5 days in presence of cisplatin by CCK8 assay; format: functional; conditions: time 5 day
MDA-MB-231 [7] = assay: Synergistic antiproliferative activity against human MDA-MB-231 cells assessed as combination index at 1.5 uM incubated for 5 days in presence of olaparib by CCK8 assay; format: functional; conditions: time 5 day
MDA-MB-231 [8] = assay: Synergistic antiproliferative activity against human MDA-MB-231 cells assessed as combination index at 7.5 uM incubated for 5 days in presence of olaparib by CCK8 assay; format: functional; conditions: time 5 day
MDA-MB-231 [9] = assay: Downregulation of BRCA1 protein level in human MDA-MB-231 cells at 0.1 to 0.5 uM incubated for 48 hrs by immunoblotting analysis; format: functional, cell-based; conditions: dose 0.1-0.5 µM
MDA-MB-231 [10] = assay: Downregulation of BRCA2 mRNA expression in human MDA-MB-231 cells incubated for 12 hrs by RT-qPCR analysis; format: functional, cell-based; conditions: dose 60-300 nM
[11] = target: T2, Protein cereblon/Cyclin-dependent kinase 13 (Homo sapiens); assay: PROTAC activity at CRBN/CDK13 in human MDA-MB-231 cells assessed as induction of CDK13 degradation at 1 uM pretreated with pomalidomide followed by compound addition and measured after 10 hrs by immunoblotting analysis; format: cell-based
MDA-MB-231 [12] = assay: Downregulation of RAD51 protein level in human MDA-MB-231 cells at 0.1 to 0.5 uM incubated for 48 hrs by immunoblotting analysis; format: functional, cell-based; conditions: dose 0.1-0.5 µM
[13] = Toxicity in female CB17SCID mouse model xenografted with human MDA-MB-231 cells assessed as body weight loss at 100 to 200 mg/kg, po administered for 5 days; format: organism-based; conditions: in vivo, 120 h, dose 100-200 mg/kg, time 5 day
MDA-MB-231 [14] = assay: Downregulation of FANCD2 mRNA expression in human MDA-MB-231 cells incubated for 12 hrs by RT-qPCR analysis; format: functional, cell-based; conditions: dose 60-300 nM
MDA-MB-231 [15] = assay: Downregulation of ATM protein level in human MDA-MB-231 cells at 0.1 to 0.5 uM incubated for 48 hrs by immunoblotting analysis; format: functional, cell-based; conditions: dose 0.1-0.5 µM
[16] = target: T1, Protein cereblon/Cyclin-dependent kinase 12 (Homo sapiens); assay: PROTAC activity at CRBN/CDK12 in human MDA-MB-436 cells assessed as induction of CDK12 degradation incubated for 15 hrs by immunoblotting analysis; format: cell-based; conditions: dose 0.01-3 µM
MDA-MB-231 [17] = assay: Synergistic antiproliferative activity against human MDA-MB-231 cells assessed as combination index at 0.3 uM incubated for 5 days in presence of olaparib by CCK8 assay; format: functional; conditions: time 5 day
[18] = target: T2, Protein cereblon/Cyclin-dependent kinase 13 (Homo sapiens); assay: PROTAC activity at CRBN/CDK13 in human MDA-MB-231 cells assessed as induction of CDK13 degradation incubated for 15 hrs by immunoblotting analysis; format: cell-based
[19] = target: T2, Protein cereblon/Cyclin-dependent kinase 13 (Homo sapiens); assay: In vivo PROTAC activity at CRBN/CDK13 in female CB17SCID mouse model xenografted with human MDA-MB-231 cells assessed as reduction in CDK13 protein expression in tumor at 100 to 200 mg/kg, po administered for 5 days by immunoblotting analysis; format: functional, organism-based; conditions: dose 100-200 mg/kg, time 5.0 day
[20] = target: T2, Protein cereblon/Cyclin-dependent kinase 13 (Homo sapiens); assay: PROTAC activity at CRBN/CDK13 in human MDA-MB-231 cells assessed as induction of CDK13 degradation at 2 uM by […] proteomic analysis; format: cell-based
[21] = target: T1, Protein cereblon/Cyclin-dependent kinase 12 (Homo sapiens); assay: PROTAC activity at CRBN/CDK12 in human MDA-MB-231 cells assessed as induction of CDK12 degradation at 1 uM pretreated with 3-benzyl-1-((1r,4r)-4-((5-cyanopyridin-2-yl)amino)cyclohexyl)-1-(4-(piperazin-1-yl)phenyl)urea followed by compound addition and measured after 10 hrs by immunoblotting analysis; format: cell-based
[22] = target: T1, Protein cereblon/Cyclin-dependent kinase 12 (Homo sapiens); assay: PROTAC activity at CRBN/CDK12 in human HCC38 cells assessed as induction of CDK12 degradation incubated for 15 hrs by immunoblotting analysis; format: cell-based; conditions: dose 0.01-3 µM
[23] = target: T1, Protein cereblon/Cyclin-dependent kinase 12 (Homo sapiens); assay: In vivo PROTAC activity at CRBN/CDK12 in female CB17SCID mouse model xenografted with human MDA-MB-231 cells assessed as reduction in CDK12 protein expression in tumor at 100 to 200 mg/kg, po administered for 5 days by immunoblotting analysis; format: functional, organism-based; conditions: dose 100-200 mg/kg, time 5.0 day
[24] = target: T1, Protein cereblon/Cyclin-dependent kinase 12 (Homo sapiens); assay: PROTAC activity at CRBN/CDK12 in human MDA-MB-231 cells assessed as induction of CDK12 degradation at 1 uM pretreated with MLN4924 followed by compound addition and measured after 10 hrs by immunoblotting analysis; format: cell-based
MDA-MB-231 [25] = assay: Downregulation of ATM mRNA expression in human MDA-MB-231 cells incubated for 12 hrs by RT-qPCR analysis; format: functional, cell-based; conditions: dose 60-300 nM
[26] = target: T1, Protein cereblon/Cyclin-dependent kinase 12 (Homo sapiens); assay: PROTAC activity at CRBN/CDK12 in human MDA-MB-231 cells assessed as induction of CDK12 degradation at 1 uM by immunoblotting analysis; format: cell-based; conditions: time <= 24.0 hrs, TDE = time-dependent effect
MDA-MB-231 [27] = assay: Downregulation of SMARCC mRNA expression in human MDA-MB-231 cells incubated for 12 hrs by RT-qPCR analysis; format: functional, cell-based; conditions: dose 60-300 nM
[28] = Antiproliferative activity against human MRC5 cells assessed as inhibition of cell growth incubated for 5 days by CCK8 assay; format: toxicity, cell-based
MDA-MB-231 [29] = assay: Synergistic antiproliferative activity against human MDA-MB-231 cells assessed as inhibition of cell growth at 0.3 to 7.5 uM incubated for 5 days in presence of olaparib by CCK8 assay; format: functional, cell-based; conditions: dose 0.3-7.5 µM, time 5.0 day
[30] = Antiproliferative activity against HEK293 cells assessed as inhibition of cell growth incubated for 5 days by CCK8 assay; format: toxicity, cell-based; conditions: human
[31] = target: T2, Protein cereblon/Cyclin-dependent kinase 13 (Homo sapiens); assay: PROTAC activity at CRBN/CDK13 in human HCC38 cells assessed as induction of CDK13 degradation incubated for 15 hrs by immunoblotting analysis; format: cell-based; conditions: dose 0.01-3 µM

Activity [2]: inactive
Activity [3]: inactive
Activity [5]: Active
Activity [11]: inactive
Activity [16]: Dose-Dependent Effect
Activity [18]: Dose-Dependent Effect
Activity [19]: Active
Activity [20]: Active
Activity [21]: inactive
Activity [22]: Dose-Dependent Effect
Activity [23]: Active
Activity [24]: inactive
Activity [26]: Tde
Activity [31]: Dose-Dependent Effect
Compound: N#Cc1ccc(N[C@H]2CC[C@H](N(C(=O)NCc3ccccc3)c3ccc(N4CCN(C5CCN(c6cc7c(cc6F)C(=O)N(C6CCC(=O)NC6=O)C7=O)CC5)CC4)cc3)CC2)nc1 (stereo partly specified)
Activity (MDA-MB-231 [1]): Active
Activity (MDA-MB-231 [4]): Active
CI (MDA-MB-231 [6]): >1
CI (MDA-MB-231 [7]): 0.9
CI (MDA-MB-231 [8]): 0.85
Activity (MDA-MB-231 [9]): Active
Activity (MDA-MB-231 [10]): Dose-Dependent Effect
Activity (MDA-MB-231 [12]): Active
Activity [13]: Non-Toxic
Activity (MDA-MB-231 [14]): Dose-Dependent Effect
Activity (MDA-MB-231 [15]): Active
CI (MDA-MB-231 [17]): >1
Activity (MDA-MB-231 [25]): Dose-Dependent Effect
Activity (MDA-MB-231 [27]): Dose-Dependent Effect
IC50 at 5 days [28]: > 10 µM
Activity (MDA-MB-231 [29]): Active
IC50 at 5 days [30]: > 10 µM
